From US20200256880A1, “Neuronal Assay Method Involving Calcineurin” (The Broad Institute, Inc., priority 2017, published 2020)

Experiments:
[1] = tested on: S469 CNAα phosphorylation in rat hippocampal neurons; experiment: Pharmacological blockade of glutamate receptors and L-type Ca channels, with or without bicuculline; phospho-S469 CNAα at synapsin-marked synapses; format: cell-based; conditions: baseline and bicuculine-induced; localized to synapses marked by synapsin
Description: (A) Rat hippocampal neurons grown in 96-well plates were stimulated with various plasticity induction paradigms or modulators of neuronal activity levels, fixed and stained for phospho-S469 CNAα and MAP2, and imaged. (B) Quantification of phospho-S469 CNAα levels within MAP2-positive dendrites in wells shown in (A). (C) Quantification of total CNAα levels within MAP2-positive dendrites in wells shown in (A). (D) Rat hippocampal neurons were pretreated with vehicle, DNQX, nifedipine, […], or a combination of all three (with group listed in this order from left to right in panel (D)) prior and after treatment with bicuculline. Neurons were then fixed and stained for phospho-S469 CNAα and synapsin and imaged on a Phenix® (Perkin Elmer) imaging system, a high content imaging system. Shown is the phospho-S469 CNAα levels localized to synapses marked by synapsin. Bic=bicuculine. *≤0.05 compared to control sample, **<0.01, ***<0.001, and ****<0.0001 compared to control sample. For FIG. 7D, statistics were derived by comparing the pharmacological condition with the equivalent control condition, either vehicle or bicucculine treated.
Next, the dependency of S469 CNAα phosphorylation was assessed when neurons were treated by blockade of glutamate receptors and L-type Ca channels using pharmacological blockers. […]

[2] = tested on: phospho-S469 CNAα in rat hippocampal neurons; format: cell-based
[3] = tested on: phosphorylated RII (pRII) peptide; experiment: Calcineurin phosphatase enzyme assay with pRII peptide; format: biochemical, human; conditions: recombinant CNAα/CNB1 holoenzyme, pRII substrate, in the presence of CaM
Protocol: To investigate whether phosphorylation of CNAα Ser469 modifies calcineurin phosphatase activity, a phosphomimetic mutant was generated by replacing S469 with E469 in purified, recombinant human calcineurin. The S469E mutant or wild type of CNAα was co-expressed with CNB1 subunit in E. coli and co-purified. Both mutant and wild type show similar expression level and purity. Their concentrations were quantified by OD280 and CaM titration.
Enzyme activity was then assessed. CN enzymatic parameters for wild-type and S469E mutant proteins were measured using phosphorylated RII (pRII) peptide in a buffer containing 50 mM HEPES (pH=7.0), 1 mM CaCl2, 1 mM MnCl2, 0.5 mM dithiothreitol (DTT), and 0.1 mg/ml bovine serum albumin (BSA). Phosphate product release was monitored at 620 nm on SpectraMax_i3x spectrophotometer (Molecular Devices) with a 96-well plate-based calcineurin phosphatase assay kit (Abcam). Briefly, CN (40 nM) and CM (200 nM) were pre-mixed in 2× assay buffer. The reaction was initiated by addition of 25 μl pRII substrate (in H2O) to equal volume of CN/CaM mixture. The final concentration of pRII used ranged from 12 μM to 750 μM. Reaction was stopped by green quench reagent after 20 minutes. Km was determined using nonlinear regression of the Michaelis-Menten equation.

Compound	levels of phospho-S469 CNAα within dendrites [2]	further results
NC(CCCP(=O)(O)O)C(=O)O (stereo not drawn) [AP5]		S469 CNAα phosphorylation [1]: most strongly reducing
N[C@H](C(=O)O)c1cc(O)cc(O)c1 [DHPG, dihydroxypheylglycine]	significantly and robustly increased	
CN[C@H](CC(=O)O)C(=O)O [NMDA, N-methyl-D-asparatate]	significantly and robustly increased	
NC1=N[C@H](O)[C@H]2[C@H]3O[C@]4(O)O[C@@H]([C@@H](O)[C@@]2(N1)[C@@H]4O)[C@]3(O)CO [TTX, tetrodotoxin]	decrease	
CC(C)NCC(O)c1ccc(O)c(O)c1 (stereo not drawn) [isoproterenol]	significantly and robustly increased	
S469E: phosphomimetic mutant of recombinant human CNAα (S469 replaced with E469) co-expressed with CNB1		Km [3]: 256 µM
